According to patent US20150087697A1, “COMPOSITIONS AND METHODS FOR THE TREATMENT OF MUSCLE PAIN” (priority 2012, published 2015):

Assay: in vivo
Conditions: rat, iv, 30 μg/min/kg

- half-life (brain (striatum microdialysate, unbound drug)): 49.1 ± 7.3 min
- half-life (plasma (femoral vein microdialysate, unbound drug)): 67.6 ± 1.4 min
Compound: CC/C=C\C/C=C\C/C=C\C/C=C\C/C=C\CCCC(=O)OCCN(CC)CCOC(c1ccccc1)c1ccccc1 [Formula I (compound 1-4)]
